Experimental data from patent US7344851B2, “Anticancer agents based on prevention of protein prenylation” (Arizona Biomedical Research Commission, priority 1998, dated 2008).
Values belong to the compound of their own block, whether it stands above or below them.

Assays:
Type in all cases: biochemical
human recombinant FTase [1] = biological target: T1, human recombinant FTase (Homo sapiens, UniProt P49354+P49356); experiment: FTase inactivation, fluorescence assay of farnesylation of Ds-GCVLS after preincubation with inactivator; conditions: for inactivation of FTase (result in words): preincubation of FTase with compound, fluorescence assay
T1 construct: gift from Professor Patrick Casey, Duke University
Protocol: For example, the catalytic ability of FTase was monitored by an assay procedure in which FTase transferred the farnesyl group from FPP to a peptide substitute for Ras. The peptide substitute for Ras in this assay had structural elements in common with Ras, in particular a sequence of four amino acids cysteinyl-valyl-lysyl-serine (cys-val-lys-ser).
Inactivation of the enzyme FTase occurred when the FTase was preincubated with phenylglyoxal monohydrate, as evidenced by (1) a decrease in enzyme activity with increasing time of preincubation with phenylglyoxal monohydrate; and (2) a decrease in enzyme activity with increasing concentration of phenylglyoxal monohydrate. Because of interference of phenylglyoxal monohydrate with the fluorescence assay used, phenylglyoxal monohydrate was removed from the FTase preincubation mixture by ultrafiltration prior to the assay being performed.
FTase assay The fluoresence assay conditions were adapted from a published method. The FTase assay consisted of the measurement of the rate of FTase-catalyzed farnesylation of the fluorescent pentapeptide Ds-GCVLS. Upon farnesylation of the cysteine, the fluoresence emission at =505 nm of the dansyl group is enhanced due to the proximity of the hydrophobic isoprenoid group. Enzyme activity (approximately 60 nM FTase) was monitored at saturating substrate concentrations (10 M farnesyl pyrophosphate, ammonium salt, prepared by successive dilutions of a commercial 2.3 mM solution in methanol:10 mM aqueous NH4OH (7:3) into assay buffer, and 1.0 M Ds-GCVLS) by measurement of the increase in fluorescence emission observed at =505 nm as FTase farnesylated Ds-GCVLS for a period of 10 min. The assay buffer was selected for unreactivity toward PGO: 50 mM NaHEPES, 5 mM DTT, 5 mM MgCl2, 10 μM ZnCl2, and 0.2% n-octyl-β-D-glucopyranoside, pH 7.5. Fluorescence emission was measured with a JASCO FP-77 spectrofluorimeter fitted with a temperature-controlled cuvette holder connected to a 30 C. constant temperature bath. All fluoresence assays were conducted in a 4 mm 4 mm quartz cuvette with excitation at 340 nm.
Inactivation of FTase by PGO FTase was incubated at 30 C in the presence and absence of PGO at various concentrations in 50 mM NaHEPES, 5 mM MgCl2, 10 μM ZnCl2, and 0.2% n-octyl-β-D-glucopyranoside, pH 7.5 (i.e., assay buffer without DTT). Periodically, aliquots of the FTase-PGO reaction mixture were removed and assayed for FTase activity. Because of interference of PGO with the fluorometric assay, the aliquot was first subjected to solvent exchange by size exclusion membrane concentration to remove PGO. The solvent exchange utilized Microcon (Millipore Co.) 30 kD molecular weight cutoff microconcentrators. This also served to stop further inactivation of the enzyme by PGO. A 100-L aliquot of FTase-PGO reaction mixture was pipetted into a Microcon concentrator, which was centrifuged at 12,000 RPM for 8 min at 4 C. The concentrate was resuspended in […] of assay buffer, and centrifugation was repeated. The final concentrate was resuspended in 90 L of assay buffer, and the resulting solution was recovered by inversion of the concentrator and centrifugation at 3500 RPM for 3 min at 4 C. The solution was then assayed for FTase activity as described above. A control was handled as above, except that PGO was omitted from the incubation mixture.

human recombinant FTase [2] = biological target: T1, human recombinant FTase; experiment: FPP protection of FTase against inactivation by PGO; conditions: FPP at various concentrations 2 min, then 10 mM PGO for 30 min at 30° C.; FIG. 3
Protocol: FIG. 3. Farnesyl pyrophosphate protection of FTase from inactivation by PGO. Points are determined by 100×(FTase activity after incubation with FPP and PGO)/(FTase activity after incubation with FPP without PGO). Assays were carried out after removal of FPP and PGO with a high molecular weight cutoff microconcentrator. Each point is the average of duplicate determinations.
FPP protection of FTase against inactivation by PGO FTase was treated with FPP at various concentrations in assay buffer without DTT for 2 min at 30° C. prior to incubation of the mixture with 10 mM PGO for 30 min at 30° C. The control was incubated with FPP at the corresponding concentration for the full length of time, but without PGO. The mixtures were subsequently subjected to microconcentration and assay, as described above.

human recombinant FTase [3] = biological target: T1, human recombinant FTase; experiment: FTase inactivation, fluorescence assay of farnesylation of Ds-GCVLS after preincubation with inactivator

time of incubation until FTase activity was lost (human recombinant FTase [1]; 35 mM 2-oxododecanal, 5% DMSO, data not shown): ≤ 2 min
inactivation of FTase (result in words) (human recombinant FTase [1]): rapidly inactivated FTase
SMILES: CCCCCCCCCCC(=O)C=O [2-oxododecanal]

inactivation of FTase (result in words) (human recombinant FTase [1]): rapidly inactivated FTase
FTase activity, % of the initial control value (human recombinant FTase [3]; 7 μM, 30 minutes of incubation, FTase 15 nM, 0.46% DMSO, Microcon step omitted): 75%
FTase activity, % of the initial control value (human recombinant FTase [3]; 28 μM, 30 minutes of incubation, FTase 15 nM, 0.46% DMSO, Microcon step omitted): 34%
FTase activity, % of the initial control value (human recombinant FTase [3]; 141 μM, 30 minutes of incubation, FTase 15 nM, 0.46% DMSO, Microcon step omitted): 22%
SMILES: CCCCCCCCCCCCCCCC(=O)OC[C@H](O)[C@H]1OC(=O)C(=O)C1=O [dehydroascorbic acid 6-palmitate]

inactivation of FTase (result in words) (human recombinant FTase [1]): rapidly inactivated FTase
FTase activity, % of the initial control value (human recombinant FTase [3]; 17 μM, 30 minutes of incubation, FTase 15 nM, 4.6% DMSO, Microcon step omitted): 38%
FTase activity, % of the initial control value (human recombinant FTase [3]; 68 μM, 30 minutes of incubation, FTase 15 nM, 4.6% DMSO, Microcon step omitted): 18%
FTase activity, % of the initial control value (human recombinant FTase [3]; 171 μM, 30 minutes of incubation, FTase 15 nM, 4.6% DMSO, Microcon step omitted): 16%
SMILES: CC(=O)C(=O)CC(C)CCC=C(C)C (stereo not shown) [5,9-dimethyl-8-decene-2,3-dione]

Second part, the compound before the results:

SMILES: O=CC(=O)c1ccccc1 [PGO, phenylglyoxal monohydrate]
FTase activity following preincubation with inactivator (human recombinant FTase [1]; 10 mM PGO for 10 min, PGO removed by microconcentrator, FIG. 1): virtual absence of enzyme activity
rate of inactivation of FTase (human recombinant FTase [1]; 10 mM PGO, compared with 20 mM, FIG. 2): slower but still quite rapid
inactivation of FTase (result in words) (human recombinant FTase [1]; listed as phenylglyoxal monohydrate, monohydrate): rapid and virtually complete inactivation
inactivation of FTase (result in words) (human recombinant FTase [1]; monohydrate): rapidly inactivated
effect of preincubation of FTase with FPP on inactivation by PGO (human recombinant FTase [2]): decreased the ability of PGO to inactivate FTase
rate of inactivation of FTase (human recombinant FTase [3]; 5 mM PGO, FIG. 2): the rate of inactivation was reduced

SMILES: CCC(=O)C(C)=O [2,3-pentanedione]
inactivation of FTase (result in words) (human recombinant FTase [1]): rapidly inactivated FTase
FTase activity, % of the initial control value (human recombinant FTase [3]; 17 mM, approximately 30 minutes of incubation, 50 mM sodium borate, pH 7.5, FTase 15 nM, Microcon step omitted): 69%
FTase activity, % of the initial control value (human recombinant FTase [3]; 33 mM, approximately 30 minutes of incubation, 50 mM sodium borate, pH 7.5, FTase 15 nM, Microcon step omitted): 55%
FTase activity, % of the initial control value (human recombinant FTase [3]; 66 mM, approximately 30 minutes of incubation, 50 mM sodium borate, pH 7.5, FTase 15 nM, Microcon step omitted): 37%

SMILES: O=CC(=O)c1ccc(-c2ccc(C(=O)C=O)cc2)cc1 [4,4′-biphenyldiglyoxaldehyde]
inactivation of FTase (result in words) (human recombinant FTase [1]): rapidly inactivated FTase
FTase activity, % of the initial control value (human recombinant FTase [3]; 23 μM, 30 minutes of incubation, FTase 15 nM, 4.6% DMSO): 68%
FTase activity, % of the initial control value (human recombinant FTase [3]; 93 μM, 30 minutes of incubation, FTase 15 nM, 4.6% DMSO): 11%

SMILES: CC(=O)c1ccc(-c2ccc(C(C)=O)cc2)cc1 [4,4′-diacetylbiphenyl, reference compound]
inactivation of FTase (result in words) (human recombinant FTase [1]): did not inactivated FTase
FTase activity compared with the control (human recombinant FTase [3]; 23 μM, 120 minutes of incubation, FTase 15 nM, 4.6% DMSO): the same as the control
